Entries after “also recorded” stand apart in the source; their conditions may differ.

What all share (assay type): cell-based
Assay [1] deals with HeLa cells. Description: Transduction of PTD- and CTP-β-galactosidase into HeLa cells (X-gal staining after fixation). As to conditions: for transduction potential / order of transduction potentials into HeLa cells: 100 μg/ml, 1 hr; for transduction potential: fixation; for order of transduction potentials into HeLa cells: β-galactosidase fusion, X-gal staining. From the text:
Although various other substitutions could be performed, it is essential in this invention that the introduction of a positive charge by arginine and the substitution by an α-helix stabilizing amino acid should be carried out for maintaining the principle function of the PTD peptide. Therefore, as a substitute amino acid, the positively charged amino acid is restricted to arginine, and the negatively charged amino acid is restricted to glutamic acid. β-galactosidase was fused to the CTP candidate peptide, the fusion proteins were isolated and purified (see FIG. 2), and HeLa cells were treated with each of the fusion proteins. This was then followed by an analysis of the transduction potential and a determination of the extent of the cytoplasmic remaining property.
The transduction potential of the PTD and CTP candidates was tested with HeLa cells. Using a 24-well plate (Nunc), 5×10^4 HeLa cells were inoculated into high glucose DMEM (containing 10% FBS) and cultured for 36 hr. The cells were rinsed with PBS and treated with 100 μg/ml of PTD- and CTP-β-galactosidase in an opti-MEM I medium. After 1-hr incubation, cells were fixed for 10 min at room temperature with a fixation solution (2% formaldehyde, 0.2% glutaraldehyde in PBS). Then, the cells were rinsed twice with PBS, and stained for 2 hr with dye (0.1% X-gal, 5 mM potassium ferricyanide, 5 mM potassium ferrocyanide, 2 mM MgCl2 in PBS) to examine their transduction potential (see FIG. 3). The samples showing a low level of staining, even after a 2-hr staining, were incubated overnight, and then stained for the relative transduction potential. The transduction potentials of the PTD and CTP candidates into HeLa cells were seen to be in the following order: PTD5<CTP502<<CTP501=CTP506<CTP507<CTP505<CTP503=CTP504<CTP508=CTP510=MTS<CTP509<<PTD=CTP511<<CTP512.

Assay [2] relates to HeLa cells. Nature of the assay: Subcellular localization of CTP-β-gal by confocal scanning microscope. As to conditions: β-galactosidase fusion protein, 100 μg/ml, 1 hr. From the text: To select cytoplamic transduction peptides (CTPs) of interest, HeLa cells were transduced with CTP-β-galactosidase, and then examined under the confocal scanning microscope. Before the confocal analysis, cells were stained with mouse anti-β-galactosidase antibody and 2nd antibodies conjugated with FITC (Fluorescence-iso-thio-cyanate) or with PE (phycoerythrin) together with DNA staining reagent (green fluorescence SYTO-16 DNA staining dye, Molecular Probe). First, HeLa cells (5×10^5 cells/ml) were plated onto a 6-well plate containing sterilized cover-slips and cultured overnight at 37° C. CO2 incubator. The cells were washed with PBS (pH 7.4) and 1 ml of an OPTI-MEM I medium was added, followed by treatment with candidate CTP-fused proteins (100 μg/ml). As a positive control, PTD-β-galactosidase fusion protein was employed, and as a negative control, only β-galactosidase protein was used. Following the treatment with candidate CTP-β-galactosidase fusion proteins, cells were incubated for 1 hr at 37° C. incubator. The cells were rinsed three times with PBS and fixed with 2% paraformaldehyde for 20 min at 4° C. HeLa cells fixed were washed twice with washing buffer (PBS containing 0.2% BSA and 0.02% sodium azide). To stain the cells with antibody, cells were pre-treated with 0.5% Triton X-100 (in PBS, Sigma) at 4° C. for 20 min. Cells were washed three times with washing buffer and then stained with mouse anti-β-galactosidase antibody (diluted 1:2,000, Sigma) for 1 hr at 4° C. as a primary antibody and then washed three times with washing buffer. Cells were then incubated with FITC-conjugated goat anti-mouse IgG (diluted 1:2,000, Jackson Laboratory) as a secondary antibody for 20 min at 4° C. Washed 3 times with the same washing buffer, cells were fixed on a slide glass with fluorescence mounting medium (DAKO) and the edge of slide glass was sealed with nail vanish.
Double staining was carried out with SYTO-16 DNA staining dye as follows: First, the cells were incubated with the primary antibodies under the same conditions and rinsed three times. Then, the cells were incubated at 4° C. for 20 min with PE-conjugated goat anti-mouse IgG PE (diluted 1:2,000, Jackson Laboratory). Washed three times with washing buffer, cells were incubated with SYTO-16 DNA staining dye (diluted 1:1,000, DAKO) for 20 min at 4° C. Cells were fixed and sealed on a slide glass and then examined under a confocal laser scanning microscope.
In the present experiment, LEICA TCS NT SP confocal microscope (LEICA Lasertech GmbH, Heidelverg, Germany) was employed, which was equipped with lager generator of argon (Ar) and krypton (Kr), scanning device, and filter capable of detecting FITC (510–550 nm) and PE (600–660) at independent channel. Photographs were taken by PL-APO X100 objective. For single staining, the cells were sectioned into 4-layers and fluorescence and transmission photographs were taken. For double staining, FITC, PE, and transmission photographs were taken using optimal respective filter.

The test system of assay [3] is HeLa cells. Description: Subcellular localization of CTP-FITC by confocal microscope without cell fixation. The note with it: FITC-labeled peptide, 25 μg/ml, 1 hr. An excerpt: Fixation step is inevitable for examining the subcellular localization of the transduced β-gal in the cells with antibodies. However, according to the previous reports, the fusion protein attached to cell surface is very likely to be introduced into the cell during a cell fixation procedure, which may affect its transduction potential and its subcellular localization. However, FITC-labeled membrane permeation peptides allow its subcellular localization to be observed under a confocal microscope without cell fixation. Monolayered HeLa cells were treated for 1 hr with FITC-labeled CTP, PTD or MTS at a concentration of 25 μg/ml, and washed three times with HBSS, followed by observation under a confocal microscope without cell fixation.

Where [4] appears, read: β-galactosidase fusion protein, HeLa cells.

As for “CTP501: CTP candidate (1P), sequence PARAARRAARR”, in the assay with HeLa cells [1] (setting [4]), the transduction potential result was “low-potential”. Besides, the “order of transduction potentials into HeLa cells” value (from here on “order”) in the assay with HeLa cells [1] is “CTP502<<CTP501=CTP506”.
Take “CTP502: CTP candidate (2P), sequence YPRAARRAARR”: the transduction potential result in the assay with HeLa cells [1] (setting [4]) was “low-potential”. Moreover, in the assay with HeLa cells [1], the “order” value is listed as “PTD5<CTP502<<CTP501”.
The like results for “CTP503: CTP candidate (2R11A), sequence YRRAARRAARA” were, in that order, “excellent transduction potential” and “CTP505<CTP503=CTP504”.
Turning to “CTP504: CTP candidate (2G), sequence YGRAARRAARR”, in the assay with HeLa cells [1] (setting [4]), the “transduction potential as percentage of wild type PTD fusion protein” value was 10%, the “transduction potential higher than PTD5” value turned out to be 20 fold and the transduction potential entry is “excellent transduction potential”. In the assay with HeLa cells [1], the “order” value is listed as “CTP503=CTP504<CTP508”. For the same substance, in the assay with HeLa cells [2], the “cytoplasmic remaining property / subcellular localization” value was “high cytoplasmic remaining property”.
For “CTP505: CTP candidate (4E), sequence YAREARRAARR”, the transduction potential entry with HeLa cells [1] (setting [4]) is given as “excellent transduction potential”. Besides, the “order” value with HeLa cells [1] is “CTP507<CTP505<CTP503”.
The like results for “CTP506: CTP candidate (2E4E), sequence YEREARRAARR” were, in that order, “low-potential” and “CTP501=CTP506<CTP507”.
As for “CTP507: CTP candidate (2K), sequence YKRAARRAARR”, in the assay on HeLa cells [1] (setting [4]), the transduction potential result is “low-potential; also recorded: excellent transduction potential”. For the same substance, in the assay on HeLa cells [1], the “order” value is “CTP506<CTP507<CTP505”.
“CTP508: CTP candidate (4K), sequence YARKARRAARR”: in the assay on HeLa cells [1] (setting [4]), the “transduction potential as percentage of wild type PTD fusion protein” value is recorded as 20% and the transduction potential entry is recorded as “excellent transduction potential; also recorded: transduction potential lower than wild type PTD; also recorded: significantly high transduction potential”. Moreover, in the assay with HeLa cells [1], the “order” value is “CTP504<CTP508=CTP510=MTS”. Further, the “cytoplasmic remaining property / subcellular localization” value with HeLa cells [2] is “much stronger cytoplasmic remaining property than PTD; also recorded: much higher than the wild type PTD; also recorded: significantly high”. Further, the subcellular localization result in the assay with HeLa cells [3] was “observed only in the cytoplasm, and not in the nucleus”.
Regarding “CTP509: CTP candidate (2K4K), sequence YKRKARRAARR”, the transduction potential entry in the assay with HeLa cells [1] (setting [4]) is on record as “transduction potential higher than CTP508; also recorded: transduction potential lower than wild type PTD; also recorded: significantly high transduction potential”. In addition, the “order” value in the assay on HeLa cells [1] is reported as “MTS<CTP509<<PTD”. For the same substance, in the assay on HeLa cells [2], the “cytoplasmic remaining property / subcellular localization” value was “much stronger cytoplasmic remaining property than PTD; also recorded: much higher than the wild type PTD; also recorded: significantly high”.
For “CTP510: CTP candidate (2G4R), sequence YGRRARRAARR”, the “order” value in the assay on HeLa cells [1] is “CTP508=CTP510=MTS”.
On to “YGRKKRRQRRR [PTD, protein transduction domain of HIV-1 Tat protein, reference compound]”, for which the “order” value in the assay with HeLa cells [1] is “CTP509<<PTD=CTP511”. Also, the subcellular localization entry in the assay on HeLa cells [3] was “FITC signal only in the nucleus, but not in the cytoplasm”.

Values taken from US7101844B2, “Cytoplasmic transduction peptides and uses thereof” (Creagene, Inc., priority 2002, dated 2006).
